Measurements published in publication PMC3445516 (PLoS ONE, 2012).
Read-outs that look alike come from different tables or passages of the source.

Legend:
Assay in all cases: Ambit kinase profiling, competition binding
CAMKIIδ = target: T1, CAMKIIδ (Homo sapiens, UniProt Q13557); conditions: for competition: CAMKIIδ, 10 µM
T1 construct: purchased Ambit Biosciences (KINOMEscan)
Method: (§1) Also included in the kinase profile are four isoforms of PKC (δ, ε, η, θ) and eight isoforms of CAMKs (CAMKIα, δ, γ; CAMKIIα, β, δ, γ; CAMK4).
(§2) The global kinase profiling experiment was performed by Ambit Biosciences.

ACVR1B = target: T2, ACVR1B (Homo sapiens, UniProt P36896)
T2 construct: purchased Ambit Biosciences (KINOMEscan)
T2 sequence (P36896 24-505): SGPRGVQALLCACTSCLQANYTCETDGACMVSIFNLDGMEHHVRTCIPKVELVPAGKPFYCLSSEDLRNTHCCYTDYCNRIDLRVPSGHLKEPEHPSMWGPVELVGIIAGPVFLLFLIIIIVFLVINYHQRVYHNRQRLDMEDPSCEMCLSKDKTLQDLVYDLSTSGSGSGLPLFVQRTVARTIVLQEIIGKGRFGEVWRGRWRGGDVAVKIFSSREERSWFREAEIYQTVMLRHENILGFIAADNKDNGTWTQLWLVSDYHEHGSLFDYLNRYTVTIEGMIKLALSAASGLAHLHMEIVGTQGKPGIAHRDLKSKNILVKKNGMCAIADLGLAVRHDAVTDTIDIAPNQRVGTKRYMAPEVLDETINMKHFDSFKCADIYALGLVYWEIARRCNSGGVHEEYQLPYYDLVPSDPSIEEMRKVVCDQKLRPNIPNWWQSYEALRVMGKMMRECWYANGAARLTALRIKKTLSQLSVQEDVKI
Method: as §1, §2

EPHB4 = target: T3, EPHB4 (Homo sapiens, UniProt P54760)
T3 construct: purchased Ambit Biosciences (KINOMEscan)
T3 sequence (P54760 16-987): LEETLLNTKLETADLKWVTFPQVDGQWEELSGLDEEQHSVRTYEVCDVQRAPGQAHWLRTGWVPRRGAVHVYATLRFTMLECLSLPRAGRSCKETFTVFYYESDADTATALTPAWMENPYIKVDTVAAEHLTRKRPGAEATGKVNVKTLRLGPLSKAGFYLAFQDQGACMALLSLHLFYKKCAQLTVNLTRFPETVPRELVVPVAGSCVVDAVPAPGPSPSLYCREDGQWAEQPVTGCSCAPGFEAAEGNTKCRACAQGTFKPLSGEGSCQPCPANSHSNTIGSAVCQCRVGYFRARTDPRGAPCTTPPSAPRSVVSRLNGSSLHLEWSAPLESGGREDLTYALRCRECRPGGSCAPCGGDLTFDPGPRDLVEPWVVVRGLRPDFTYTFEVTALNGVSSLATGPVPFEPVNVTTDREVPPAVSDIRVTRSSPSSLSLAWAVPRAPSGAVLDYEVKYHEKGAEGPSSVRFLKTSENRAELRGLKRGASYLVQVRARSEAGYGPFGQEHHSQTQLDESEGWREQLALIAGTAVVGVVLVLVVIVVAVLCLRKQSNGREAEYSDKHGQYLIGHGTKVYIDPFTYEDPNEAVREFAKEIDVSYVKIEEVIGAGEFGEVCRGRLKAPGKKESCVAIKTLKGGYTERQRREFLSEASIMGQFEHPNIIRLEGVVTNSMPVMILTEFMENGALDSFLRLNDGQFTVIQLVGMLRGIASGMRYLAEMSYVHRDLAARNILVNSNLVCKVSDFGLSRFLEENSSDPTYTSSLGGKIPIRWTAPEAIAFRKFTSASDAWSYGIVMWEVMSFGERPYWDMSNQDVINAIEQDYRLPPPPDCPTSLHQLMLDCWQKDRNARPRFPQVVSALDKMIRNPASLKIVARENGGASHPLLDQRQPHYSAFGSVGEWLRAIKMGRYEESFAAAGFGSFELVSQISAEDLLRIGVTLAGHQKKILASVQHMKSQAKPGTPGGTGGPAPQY
Method: as §1, §2

AURKC = target: T4, AURKC (Homo sapiens, UniProt Q9UQB9)
T4 construct: purchased Ambit Biosciences (KINOMEscan)
T4 sequence (Q9UQB9 1-309): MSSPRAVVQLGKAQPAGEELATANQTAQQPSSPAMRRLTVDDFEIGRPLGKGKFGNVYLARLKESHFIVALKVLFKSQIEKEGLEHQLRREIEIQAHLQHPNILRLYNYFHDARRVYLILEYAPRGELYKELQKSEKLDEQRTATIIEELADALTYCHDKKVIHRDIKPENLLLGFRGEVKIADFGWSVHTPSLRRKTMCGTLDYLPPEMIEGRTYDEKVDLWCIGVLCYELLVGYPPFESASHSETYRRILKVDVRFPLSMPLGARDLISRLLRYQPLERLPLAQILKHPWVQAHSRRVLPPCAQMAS
Method: as §1, §2

[1] = target: T5, RPS6KA6(Kin.Dom.2-C-terminal) (Homo sapiens, UniProt Q9UK32); conditions: for % Competition: 10 µM
T5 construct: RPS6KA6(Kin.Dom.2-C-terminal); purchased Ambit Biosciences (KINOMEscan)
T5 sequence (Q9UK32 401-745 limits assumed): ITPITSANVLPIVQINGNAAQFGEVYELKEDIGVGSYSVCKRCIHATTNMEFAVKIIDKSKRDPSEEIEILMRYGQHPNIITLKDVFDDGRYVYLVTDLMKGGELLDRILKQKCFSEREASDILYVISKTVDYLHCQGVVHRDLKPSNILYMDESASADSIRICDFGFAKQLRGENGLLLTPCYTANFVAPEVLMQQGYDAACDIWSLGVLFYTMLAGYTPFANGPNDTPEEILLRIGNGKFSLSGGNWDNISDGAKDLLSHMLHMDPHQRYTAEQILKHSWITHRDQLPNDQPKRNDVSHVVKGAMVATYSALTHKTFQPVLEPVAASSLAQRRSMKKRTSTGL
Method: as §1, §2

MRCKA = target: T6, MRCKA (Homo sapiens, UniProt Q5VT25)
T6 construct: purchased Ambit Biosciences (KINOMEscan)
T6 sequence (Q5VT25 whole entry): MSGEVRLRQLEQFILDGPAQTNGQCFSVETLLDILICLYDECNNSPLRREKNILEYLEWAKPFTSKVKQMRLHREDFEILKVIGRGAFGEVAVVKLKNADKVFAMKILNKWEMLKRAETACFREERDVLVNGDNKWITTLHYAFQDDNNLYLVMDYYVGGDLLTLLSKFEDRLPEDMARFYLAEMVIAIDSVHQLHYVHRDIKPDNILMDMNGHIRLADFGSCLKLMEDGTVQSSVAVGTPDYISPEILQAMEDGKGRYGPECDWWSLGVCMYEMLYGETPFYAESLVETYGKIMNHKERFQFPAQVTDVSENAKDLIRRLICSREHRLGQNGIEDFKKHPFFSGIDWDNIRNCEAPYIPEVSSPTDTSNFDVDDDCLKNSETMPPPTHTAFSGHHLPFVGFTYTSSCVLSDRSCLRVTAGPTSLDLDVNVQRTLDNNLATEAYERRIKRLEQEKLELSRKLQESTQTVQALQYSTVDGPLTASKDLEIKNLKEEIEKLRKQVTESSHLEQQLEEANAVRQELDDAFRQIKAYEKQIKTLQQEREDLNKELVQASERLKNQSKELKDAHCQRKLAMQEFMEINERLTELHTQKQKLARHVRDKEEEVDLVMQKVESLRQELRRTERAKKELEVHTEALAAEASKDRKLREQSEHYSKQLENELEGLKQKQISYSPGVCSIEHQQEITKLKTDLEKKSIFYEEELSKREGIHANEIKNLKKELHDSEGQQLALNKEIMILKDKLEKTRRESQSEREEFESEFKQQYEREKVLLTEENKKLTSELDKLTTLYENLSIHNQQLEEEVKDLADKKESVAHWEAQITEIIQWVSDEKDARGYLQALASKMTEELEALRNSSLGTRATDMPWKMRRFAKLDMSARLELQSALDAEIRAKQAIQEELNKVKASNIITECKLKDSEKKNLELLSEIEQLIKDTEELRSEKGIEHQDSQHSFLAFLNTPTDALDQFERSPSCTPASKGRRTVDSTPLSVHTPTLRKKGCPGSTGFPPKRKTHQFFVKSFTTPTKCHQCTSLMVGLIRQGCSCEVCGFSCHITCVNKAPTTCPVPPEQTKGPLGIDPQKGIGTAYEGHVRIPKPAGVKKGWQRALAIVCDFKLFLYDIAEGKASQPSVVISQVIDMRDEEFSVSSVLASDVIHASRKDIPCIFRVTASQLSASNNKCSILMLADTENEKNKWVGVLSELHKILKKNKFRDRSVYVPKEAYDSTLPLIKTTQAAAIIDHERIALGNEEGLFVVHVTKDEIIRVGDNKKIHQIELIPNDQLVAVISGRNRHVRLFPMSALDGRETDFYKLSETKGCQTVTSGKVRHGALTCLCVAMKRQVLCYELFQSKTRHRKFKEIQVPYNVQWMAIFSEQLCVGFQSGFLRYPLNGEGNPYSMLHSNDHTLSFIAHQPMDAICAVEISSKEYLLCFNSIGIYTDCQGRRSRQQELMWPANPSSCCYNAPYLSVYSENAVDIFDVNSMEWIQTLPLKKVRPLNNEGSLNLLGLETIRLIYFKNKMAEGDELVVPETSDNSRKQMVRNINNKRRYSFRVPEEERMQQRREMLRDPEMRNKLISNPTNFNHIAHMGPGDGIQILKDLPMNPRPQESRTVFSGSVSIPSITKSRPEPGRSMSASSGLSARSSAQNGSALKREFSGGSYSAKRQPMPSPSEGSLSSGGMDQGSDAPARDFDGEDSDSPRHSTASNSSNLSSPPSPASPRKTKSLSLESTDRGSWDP
Method: as §1, §2

KIT(V559D) = target: T7, KIT(V559D) (Homo sapiens, UniProt P10721, V559D)
T7 construct: purchased Ambit Biosciences (KINOMEscan)
T7 sequence (P10721 26-976 V559D): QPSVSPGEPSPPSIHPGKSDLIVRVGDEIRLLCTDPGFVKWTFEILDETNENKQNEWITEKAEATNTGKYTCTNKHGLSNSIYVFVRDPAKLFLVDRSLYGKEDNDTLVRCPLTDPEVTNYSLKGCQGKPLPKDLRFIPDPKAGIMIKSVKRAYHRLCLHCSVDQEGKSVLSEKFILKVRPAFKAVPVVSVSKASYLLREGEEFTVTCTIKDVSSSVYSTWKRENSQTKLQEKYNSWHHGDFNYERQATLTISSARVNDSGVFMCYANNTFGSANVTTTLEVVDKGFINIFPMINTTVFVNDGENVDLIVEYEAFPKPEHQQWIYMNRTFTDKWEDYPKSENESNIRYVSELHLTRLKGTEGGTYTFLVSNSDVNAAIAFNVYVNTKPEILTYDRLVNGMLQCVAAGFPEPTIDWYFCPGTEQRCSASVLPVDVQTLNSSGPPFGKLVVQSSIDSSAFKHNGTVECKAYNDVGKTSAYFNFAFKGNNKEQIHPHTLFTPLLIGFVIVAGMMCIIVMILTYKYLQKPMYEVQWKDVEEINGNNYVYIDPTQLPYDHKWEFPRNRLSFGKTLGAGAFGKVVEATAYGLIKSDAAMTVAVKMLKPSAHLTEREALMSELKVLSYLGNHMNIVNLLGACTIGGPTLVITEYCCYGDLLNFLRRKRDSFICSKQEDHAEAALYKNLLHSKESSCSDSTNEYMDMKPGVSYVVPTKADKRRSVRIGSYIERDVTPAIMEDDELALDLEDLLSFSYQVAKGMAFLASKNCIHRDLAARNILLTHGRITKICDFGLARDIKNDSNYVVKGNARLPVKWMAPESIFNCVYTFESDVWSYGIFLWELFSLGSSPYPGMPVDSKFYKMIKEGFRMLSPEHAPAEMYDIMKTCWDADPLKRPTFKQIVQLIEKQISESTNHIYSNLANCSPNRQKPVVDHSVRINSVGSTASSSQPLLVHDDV
Method: as §1, §2

T1 sequence (Q13557 whole entry): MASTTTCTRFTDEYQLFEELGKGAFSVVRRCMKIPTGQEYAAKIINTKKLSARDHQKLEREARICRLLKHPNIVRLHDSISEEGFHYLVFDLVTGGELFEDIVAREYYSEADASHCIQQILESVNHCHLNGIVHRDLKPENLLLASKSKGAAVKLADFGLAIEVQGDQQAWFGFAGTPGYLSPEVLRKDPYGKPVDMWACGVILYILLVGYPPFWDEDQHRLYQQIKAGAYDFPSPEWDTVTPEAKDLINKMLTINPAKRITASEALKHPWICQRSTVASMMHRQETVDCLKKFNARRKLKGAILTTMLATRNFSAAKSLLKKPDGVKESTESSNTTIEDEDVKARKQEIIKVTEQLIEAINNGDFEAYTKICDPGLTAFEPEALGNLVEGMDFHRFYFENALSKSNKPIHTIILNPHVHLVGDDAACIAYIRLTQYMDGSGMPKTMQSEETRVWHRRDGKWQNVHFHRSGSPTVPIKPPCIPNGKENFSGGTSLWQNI

| inhibition at 10 µM (CAMKIIδ; CAMK2D, compound concentration 10 uM, read-out: Percent Competition) [%] | inhibition at 10 µM (ACVR1B; ACVR1B, compound concentration 10 uM, read-out: Percent Competition) [%] | inhibition at 10 µM (EPHB4; EPHB4, compound concentration 10 uM, read-out: Percent Competition) [%] | inhibition at 10 µM (AURKC; AURKC, compound concentration 10 uM, read-out: Percent Competition) [%] | Percent Competition ([1]; compound concentration 10 uM) [%] | inhibition at 10 µM (MRCKA; MRCKA, compound concentration 10 uM, read-out: Percent Competition) [%] | inhibition at 10 µM (KIT(V559D); KIT(V559D), compound concentration 10 uM, read-out: Percent Competition) [%] | inhibition at 10 µM (ACVR1B; ACVR1B, 10 µM, read-out: % Competition) [%] | inhibition at 10 µM (EPHB4; EPHB4, 10 µM, read-out: % Competition) [%] | inhibition at 10 µM (AURKC; AURKC, 10 µM, read-out: % Competition) [%] | inhibition at 10 µM (MRCKA; MRCKA, 10 µM, read-out: % Competition) [%] | inhibition at 10 µM (KIT(V559D); KIT(V559D), 10 µM, read-out: % Competition) [%] | SMILES | competition (CAMKIIδ) [%] | % Competition [1] [%] | inhibition at 10 µM (ACVR1B; read-out: % Competition) [%] | inhibition at 10 µM (EPHB4; read-out: % Competition) [%] | inhibition at 10 µM (AURKC; read-out: % Competition) [%] | inhibition at 10 µM (MRCKA; read-out: % Competition) [%] | inhibition at 10 µM (KIT(V559D); read-out: % Competition) [%] |
| --- | --- | --- | --- | --- | --- | --- | --- | --- | --- | --- | --- | --- | --- | --- | --- | --- | --- | --- | --- |
| < 50 | 91 | 72 | 86 | 98 | 99 | 75 | – | – | – | – | – | Fc1ccc(-c2c(-c3ccncc3)[nH]c3nccnc23)cc1 [RO1155697-000-005] | – | – | – | – | – | – | – |
| – | – | – | – | – | – | – | 91 | 72 | 86 | 99 | 75 | Fc1ccc(-c2c(-c3ccncc3)[nH]c3nccnc23)cc1 [Compound 122] | < 50 | 98 | – | – | – | – | – |
| – | – | – | – | – | – | – | – | – | – | – | – | CC(O)CNc1cc(-c2[nH]c3cccnc3c2-c2ccc(F)cc2)ccn1 (stereo not drawn) [Compound 140] | < 50 | 96 | < 50 | < 50 | < 50 | < 50 | < 50 |
